Key:
HCT116 (colon) = assay: In vitro cytotoxic activity assay (MTT), HCT116; format: cell-based; settings: Homo sapiens, HCT-116; HCT116 (colon) cells, exposed for 96 hours; read-out: IC50, concentration eliciting 50% inhibition of cell proliferation
Method: (§1) Compounds 1-16 were screened for their in vitro cytotoxic behavior using a 3-(4,5-dimethyl-thiazol-2-yl)-2,5-diphenyltetrazolium bromide (MTT) assay against selected cancer human cell lines consisting of PC3 (prostate), HCT116 (colon), A375 (melanoma), H1299 (lung), MIAPaCa-2 (pancreas), HL60 (leukemia), MCF7 (breast), MDA-MB-231 (breast) (T. Mosmann, J. Immunol. Meth., 1983, 65, 55-63). The cells were cultured at 37° C. in RMPI1640 medium supplemented with 10% fetal bovine serum, 50 IU/mL penicillin, and 50 μg/mL streptomycin in a 5% CO2 incubator. All cells were sub-cultured 3 times/week by trypsinisation. Viable cells were seeded and allowed to adhere for 12 h before a test drug was added in 96-well plates at an initial density of 1.0×10^5 cells/mL. Tumor cell lines were separately exposed to various concentrations of the tested compounds followed by incubation at a temperature of 37° C. during 96 h inside a medium of fresh RMPI 1640. Cells were subsequently incubated at 37° C. using MTT at 0.5 mg/mL during 4 hours. After removal of supernatant, formazan crystals were dissolved in isopropanol and the optical density was measured at 570 nm. CX-4945 was used as a positive control.

A375 (melanoma) = assay: In vitro cytotoxic activity assay (MTT), A375; format: cell-based; settings: Homo sapiens, A-375; A375 (melanoma) cells, exposed for 96 hours; read-out: IC50, concentration eliciting 50% inhibition of cell proliferation
Method: as §1

PC3 (prostate) = assay: In vitro cytotoxic activity assay (MTT), PC3; format: cell-based; settings: Homo sapiens, Prostate cell; PC3 (prostate) cells, exposed for 96 hours; read-out: IC50, concentration eliciting 50% inhibition of cell proliferation
Method: as §1

HL60 (leukemia) = assay: In vitro cytotoxic activity assay (MTT), HL60; format: cell-based; settings: Homo sapiens, HL-60; HL60 (leukemia) cells, exposed for 96 hours; read-out: IC50, concentration eliciting 50% inhibition of cell proliferation
Method: as §1

[1] = molecular target: T1, recombinant human CK2 (RRββ-holoenzyme) (Homo sapiens, UniProt P68400); assay: CK2 Kinase Assay ([γ-33P]ATP, substrate peptide RRRDDDSDDD); format: biochemical; settings: final ATP concentration 15 μM, 10 minutes at 30° C.; read-out: protein kinase CK2 IC50
T1 construct: purchased Millipore
T1 sequence (P68400 whole entry): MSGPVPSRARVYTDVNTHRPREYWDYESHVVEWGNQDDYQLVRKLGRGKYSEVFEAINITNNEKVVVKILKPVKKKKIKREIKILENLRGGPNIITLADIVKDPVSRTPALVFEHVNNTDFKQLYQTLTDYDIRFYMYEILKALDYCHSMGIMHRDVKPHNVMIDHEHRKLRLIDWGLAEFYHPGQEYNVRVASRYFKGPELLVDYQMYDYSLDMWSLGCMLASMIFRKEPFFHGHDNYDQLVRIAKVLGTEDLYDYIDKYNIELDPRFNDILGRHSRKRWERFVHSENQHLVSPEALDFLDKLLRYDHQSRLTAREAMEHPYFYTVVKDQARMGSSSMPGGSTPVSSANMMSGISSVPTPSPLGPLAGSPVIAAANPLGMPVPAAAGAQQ
T1 sequence (P67870 whole entry partner): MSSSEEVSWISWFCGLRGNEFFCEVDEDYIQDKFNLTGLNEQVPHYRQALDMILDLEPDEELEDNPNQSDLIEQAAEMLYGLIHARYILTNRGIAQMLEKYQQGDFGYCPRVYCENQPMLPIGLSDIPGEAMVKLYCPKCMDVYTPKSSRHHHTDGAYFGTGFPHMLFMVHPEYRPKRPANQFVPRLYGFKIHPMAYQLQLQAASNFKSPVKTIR
Method: CK2 Kinase Assay was conducted using the previously described protocol (Pierre F. et al; J. Med. Chem. 2011, 54, 635-654). The tested compounds in aqueous solution were added at a volume of 10 μL to a reaction mixture comprising 10 μL of assay dilution buffer (ADB; 20 mM MOPS, pH 7.2, 25 mM β-glycerol phosphate, 5 mM EGTA, 1 mM sodium orthovanadate, and 1 mM dithiothreitol), 10 μL of substrate peptide (RRRDDDSDDD, dissolved in ADB at a concentration of 1 mM), 10 μL of recombinant human CK2 (RRββ-holoenzyme, 25 ng dissolved in ADB; Millipore). Reactions were initiated by the addition of 10 μL of ATP solution (90% 75 mMMgCl2, 75 μM ATP (final ATP concentration: 15 μM) dissolved in ADB; 10% [γ-33P] ATP (stock 1 mCi/100 μL; 3000 Ci/mmol (Perkin-Elmer) and maintained for 10 minutes at 30° C. The reactions were quenched with 100 μL of 0.75% phosphoric acid and then transferred to and filtered through a phosphor cellulose filter plate (Millipore). After washing each well five times with 0.75% phosphoric acid, the plate was dried under vacuum for 5 min and, following the addition of 15 μL of scintillation fluid to each well, the residual radioactivity was measured using a Wallac luminescence counter. The IC50 values were derived from eight concentrations of test inhibitors.

MDA-MB-231 (breast) = assay: In vitro cytotoxic activity assay (MTT), MDA-MB-231; format: cell-based; settings: Homo sapiens; MDA-MB-231 (breast) cells, exposed for 96 hours; read-out: IC50, concentration eliciting 50% inhibition of cell proliferation
Method: as §1

MCF7 (breast) = assay: In vitro cytotoxic activity assay (MTT), MCF7; format: cell-based; settings: Homo sapiens; MCF7 (breast) cells, exposed for 96 hours; read-out: IC50, concentration eliciting 50% inhibition of cell proliferation
Method: as §1

MIAPaCa-2 (pancreas) = assay: In vitro cytotoxic activity assay (MTT), MIAPaCa-2; format: cell-based; settings: Homo sapiens, MIA PaCa-2; MIAPaCa-2 (pancreas) cells, exposed for 96 hours; read-out: IC50, concentration eliciting 50% inhibition of cell proliferation
Method: as §1

H1299 (lung) = assay: In vitro cytotoxic activity assay (MTT), H1299; format: cell-based; settings: Homo sapiens, NCI-H1299; H1299 (lung) cells, exposed for 96 hours; read-out: IC50, concentration eliciting 50% inhibition of cell proliferation
Method: as §1

SMILES: O=C1Nc2nc(Nc3cccc(Cl)c3)c3cc(C(=O)O)ccc3c2C1=O [Compound 1, 5-((3-chlorophenyl)amino)-1,2-dioxo-2,3-dihydro-1H-pyrrolo[2,3-c]isoquinoline-7-carboxylic Acid]
- IC50 (HCT116 (colon)): 1.3 µM
- IC50 (A375 (melanoma)): 2.7 µM
- IC50 (PC3 (prostate)): 1.2 µM
- IC50 (HL60 (leukemia)): 3.4 µM
- IC50 [1]: 0.055 µM
- IC50 (MDA-MB-231 (breast)): 4.1 µM
- IC50 (MCF7 (breast)): 5.5 µM
- IC50 (MIAPaCa-2 (pancreas)): 1.3 µM
- IC50 (H1299 (lung)): 1.9 µM

— patent US11952378B1, “Pyrrolo[2,3-c]isoquinoline-1,2-dione compounds as CK2 inhibitors” (KING FAISAL UNIVERSITY, priority 2023, dated 2024)
